Measured values as given in US11560400B2, “Salts of diphosphate phosphoramidate of nucleosides as anticancer compounds” (NuCana plc, priority 2017, dated 2023).
Structures can show the parent of a compound that is named as a salt. Where two headings read alike, the source gives them in different places.

Experiments:
MOLT-4 = experiment: CellTiterGlo cell viability assay, MOLT-4; assay type: cell-based; conditions: MOLT-4, 72 h; for inhibition at 198 µM: read-out: Top Inh; for EC50: read-out: Ab EC50
Protocol: (§1) A subset of compounds of the invention were assayed for their cytotoxic activity in an array of different solid tumours and haematological malignancies using the following assay.
(§2) In vitro viability assay were performed to assess the effects of compounds on cell viability in selected cell lines over 72 h using the CellTiterGlo (CTG, Promega-G7573) assay. The tests were performed in duplicates with treatment of compounds at 9 points, 3.16 folds titration in 96 well plates over ˜72 h. The compound starting concentrations were 198 μM. Cell viability assay using CellTiterGlo in 96-well plate were performed. Compound treatment 72 h, standard growth conditions, duplicates. Compounds were dissolved to 40 mM with thawed […]. Compounds were serially diluted at 3.16 fold in thawed DMSO, and warmed to 37° C. before being dissolved in media (2 μL+200 μL). After compounds were dissolved in media, media containing compounds were warmed to 37° C. in incubator and then compounds in media were added to cell plates (50 μL+50 μL) in duplicates. The compounds' final concentrations were from 198 μM to 19.8 nM. All compound solubilities were checked and recorded again, then the plates were transferred to CO2 tissue culture incubator immediately and incubated for 3 days. DMSO final concentration is 0.5%. The parent nucleoside in each case was tested as a comparator, as was an exemplary ProTide. The drugs of the ProTide class that were tested were as follows:
(§3) The following cell lines were tested and are referred to in the Table 1 below:
(§4) In Tables 2, 3 and 4, ‘Ab EC50’ refers to the absolute EC50 and ‘Top inhibit’ refers to the percentage inhibition achieved at the highest concentration tested.

RPMI-8226 = experiment: CellTiterGlo cell viability assay, RPMI-8226; assay type: cell-based, Human; conditions: RPMI-8226, 72 h; for EC50: read-out: Ab EC50; for inhibition at 198 µM: read-out: Top Inh
Protocol: as §1, §2, §3, §4

HL-60 = experiment: CellTiterGlo cell viability assay, HL-60; assay type: cell-based; conditions: HL-60, 72 h; for EC50: read-out: Ab EC50; for inhibition at 198 µM: read-out: Top Inh
Protocol: as §1, §2, §3, §4

K562 = experiment: CellTiterGlo cell viability assay, K562; assay type: cell-based; conditions: for inhibition at 198 µM: read-out: Top Inh; for EC50: read-out: Ab EC50
Protocol: as §1, §2, §3, §4

OVCAR 3 = experiment: CellTiterGlo cell viability assay, OVCAR 3; assay type: cell-based; conditions: for inhibition at 198 µM: OVCAR-3, 72 h, read-out: Top Inhibit; for EC50: read-out: Ab EC50
Protocol: as §1, §2, §3, §4

CCRF-CEM = experiment: CellTiterGlo cell viability assay, CCRF-CEM; assay type: cell-based; conditions: 72 h; for EC50: read-out: Ab EC50; for inhibition at 198 µM: read-out: Top Inh
Protocol: as §1, §2, §3, §4

HepG2 = experiment: CellTiterGlo cell viability assay, HepG2; assay type: cell-based; conditions: HepG2, 72 h; for EC50: read-out: Ab EC50; for inhibition at 198 µM: read-out: Top Inhibit
Protocol: as §1, §2, §3, §4

RL = experiment: CellTiterGlo cell viability assay, RL; assay type: cell-based; conditions: 72 h; for inhibition at 198 µM: read-out: Top Inh
Protocol: as §1, §2, §3, §4

MCF-7 = experiment: CellTiterGlo cell viability assay, MCF-7; assay type: cell-based; conditions: MCF-7, 72 h; for inhibition at 198 µM / EC50: Homo sapiens, MCF7, 72 h; for inhibition at 198 µM: read-out: Top Inhibit; for EC50: Table 4 classes, read-out: Ab EC50
Protocol: as §1, §2, §3, §4

KG-1 = experiment: CellTiterGlo cell viability assay, KG-1; assay type: cell-based; conditions: KG-1, 72 h; for EC50: read-out: Ab EC50; for inhibition at 198 µM: read-out: Top Inhibit
Protocol: as §1, §2, §3, §4

HT29 = experiment: CellTiterGlo cell viability assay, HT29; assay type: cell-based; conditions: HT29, 72 h; for EC50: read-out: Ab EC50; for inhibition at 198 µM: read-out: Top Inhibit
Protocol: as §1, §2, §3, §4

[1] = Homo sapiens, percentage inhibition at the highest concentration tested
[2] = Homo sapiens, K562, 72 h, percentage inhibition at the highest concentration tested
[3] = Homo sapiens, K562, K 562, 72 h, Table 4 classes
[4] = Homo sapiens, OVCAR 3, 72 h, Table 4 classes
[5] = percentage inhibition at the highest concentration tested
[6] = Homo sapiens, HT-29, 72 h, Table 4 classes
[7] = Homo sapiens, HT-29, 72 h, percentage inhibition at the highest concentration tested

SMILES | inhibition at 198 µM (MOLT-4; [1]) | EC50 (MOLT-4; Homo sapiens, Table 4 classes) | EC50 (RPMI-8226; Homo sapiens, Table 4 classes) | inhibition at 198 µM (RPMI-8226; [1]) | EC50 (HL-60; Homo sapiens, Table 4 classes) | inhibition at 198 µM (HL-60; [1]) | inhibition at 198 µM (K562; [2]) | EC50 (K562; [3]) | inhibition at 198 µM (OVCAR 3; [1]) | EC50 (OVCAR 3; [4]) | EC50 (CCRF-CEM; Homo sapiens, Table 4 classes) | inhibition at 198 µM (CCRF-CEM; [1]) | EC50 (HepG2; Homo sapiens, Table 4 classes) | inhibition at 198 µM (HepG2; [1]) | inhibition at 198 µM (RL; [1]) | inhibition at 198 µM (MCF-7; [5]) | EC50 (KG-1; Homo sapiens, Table 4 classes) | inhibition at 198 µM (KG-1; [1]) | EC50 (HT29; [6]) | inhibition at 198 µM (HT29; [7]) | further results
C[C@H](NP(=O)(Oc1ccccc1)OP(=O)(O)OC[C@H]1O[C@@H](n2cnc3c(N)nc(Cl)nc32)[C@H](F)C1O)C(=O)OCC(C)(C)C (stereo partly drawn) [Example 9, 2-Chloro-9-(2′-Deoxy-2′-fluoro-β-D-arabinofuranosyl)adenine-5′-O-[phenyl(neopentoxy-L-alaninyl)] Diphosphate Triethylammonium Salt] | 92% | < 200 nM | > 10000 nM | 81% | < 200 nM | 96% | 40% | > 10000 nM | 43% | > 10000 nM | < 200 nM | 99% | 200 to 1000 nM | 53% | 53% | 45% | < 200 nM | 92% | 200 to 1000 nM | 70% | EC50 (RL; Homo sapiens, Table 4 classes, read-out: Ab EC50): 200 to 1000 nM
CC(C)(NP(=O)(Oc1ccccc1)OP(=O)(O)OC[C@H]1O[C@@H](n2cnc3c(N)nc(Cl)nc32)[C@H](F)C1O)C(=O)OCc1ccccc1 (stereo partly drawn) [Example 10, 2-Chloro-9-(2′-Deoxy-2′-fluoro-β-D-arabinofuranosyl)adenine-5′-O-[phenyl(benzoxy-dimethylglycinyl)] Diphosphate Triethylammonium Salt] | 93% | < 200 nM | > 10000 nM | 80% | < 200 nM | 96% | 37% | > 10000 nM | 42% | > 10000 nM | < 200 nM | 99% | 1000 to 5000 nM | 55% | 48% | 51% | < 200 nM | 92% | 200 to 1000 nM | 70% | EC50 (MCF-7): > 10000 nM
CC(C)(NP(=O)(Oc1cccc2ccccc12)OP(=O)(O)OC[C@H]1O[C@@H](n2cnc3c(N)nc(Cl)nc32)[C@H](F)C1O)C(=O)OCc1ccccc1 (stereo partly drawn) [Example 11, 2-Chloro-9-(2′-Deoxy-2′-fluoro-β-D-arabinofuranosyl)adenine-5′-O-[1-naphthyl(benzoxy-dimethylglycinyl)] Diphosphate Triethylammonium Salt] | 91% | < 200 nM | > 10000 nM | 81% | < 200 nM | 96% | 50% | > 10000 nM | 70% | > 10000 nM | < 200 nM | 99% | 1000 to 5000 nM | 58% | 47% | 57% | < 200 nM | 92% | 200 to 1000 nM | 69% | EC50 (MCF-7): > 10000 nM
CC(C)[C@H](NP(=O)(Oc1ccccc1)OP(=O)(O)OC[C@H]1O[C@@H](n2cnc3c(N)nc(Cl)nc32)[C@@H](F)[C@@H]1O)C(=O)OC1CCCCC1.CCN(CC)CC (stereo partly drawn) [Example 12, 2-Chloro-9-(2′-Deoxy-2′-fluoro-β-D-arabinofuranosyl)adenine-5′-O-[phenyl(cyclohexoxy-L-valinyl)] Diphosphate Triethylammonium Salt] | – | – | – | – | – | – | – | – | – | – | – | – | – | – | – | – | – | – | – | – | EC50 (MOLT-4; absolute EC50, numeric values): 40 nM; Top Inh (MOLT-4; [5]): 91%; EC50 (RPMI-8226; absolute EC50, numeric values): 39600 nM; Top Inh (RPMI-8226; [5]): 79%; EC50 (HL-60; absolute EC50, numeric values): 70 nM; Top Inh (HL-60; [5]): 96%; EC50 (K562; K562, 72 h, absolute EC50, numeric values): > 198000 nM; Top Inh (K562; K562, 72 h, percentage inhibition at the highest concentration tested): 40%; EC50 (OVCAR 3; OVCAR 3, 72 h, absolute EC50, numeric values): > 198000 nM; Top Inhibit (OVCAR 3; OVCAR 3, 72 h, percentage inhibition at the highest concentration tested): 41%; EC50 (CCRF-CEM; absolute EC50, numeric values): < 20 nM; Top Inh (CCRF-CEM; [5]): 99%; EC50 (HepG2; absolute EC50, numeric values): 290 nM; Top Inhibit (HepG2; [5]): 54%; Top Inh (RL; [5]): 47%; Top Inhibit (MCF-7; [5]): 44%; EC50 (KG-1; absolute EC50, numeric values): 140 nM; Top Inhibit (KG-1; [5]): 91%; EC50 (HT29; absolute EC50, numeric values): 370 nM; Top Inhibit (HT29; [5]): 71%
C[C@H](NP(=O)(Oc1cccc2ccccc12)OP(=O)(O)OC[C@H]1O[C@@H](n2cnc3c(N)nc(Cl)nc32)[C@H](F)C1O)C(=O)OCC(C)(C)C (stereo partly drawn) [Example 13, 2-Chloro-9-(2′-Deoxy-2′-fluoro-β-D-arabinofuranosyl)adenine-5′-O-[1-naphthyl(neopentoxy-L-alaninyl)] Diphosphate Triethylammonium Salt] | 89% | < 200 nM | > 10000 nM | 88% | < 200 nM | 96% | 44% | > 10000 nM | 80% | > 10000 nM | < 200 nM | 99% | – | 49% | 48% | 49% | < 200 nM | 93% | 200 to 1000 nM | 68% | –
C[C@@H](NP(=O)(Oc1ccccc1)OP(=O)(O)OC[C@H]1O[C@@H](n2cnc3c(N)nc(Cl)nc32)[C@H](F)C1O)C(=O)OCC(C)(C)C (stereo partly drawn) [Example 14, 2-Chloro-9-(2′-Deoxy-2′-fluoro-β-D-arabinofuranosyl)adenine-5′-O-[phenyl(neopentoxy-D-alaninyl)] Diphosphate Triethylammonium Salt] | 95% | < 200 nM | > 10000 nM | 78% | < 200 nM | 96% | 36% | > 10000 nM | 43% | > 10000 nM | < 200 nM | 99% | 200 to 1000 nM | 52% | 49% | 48% | < 200 nM | 93% | 200 to 1000 nM | 71% | –
